Results taken from US20120128630A1, “1-(6 MEMBERS AZO-HETEROCYCLIC)-PYRROLIN-2-ONE COMPOUNDS AS INHIBITORS OF HEPATITIS C NS5B POLYMERASE, THE PHARAMACEUTICAL COMPOSITION THEREOF AND THEIR THERAPEUTIC USE” (priority 2009, published 2012).

Experiments:
HCV NS5B genotype 1b = target: T1, HCV NS5B genotype 1b (Hepatitis C virus genotype 1b, UniProt Q9WMX2); test: 3D-SCREEN assay (NS5B 3D-Screen platform, luciferase reporter gene); assay type: cell-based; conditions: EC50_3DS_NS5B
T1 construct: The protein was expressed with a 21 amino acid C-terminal deletion to remove transmembrane domain; expressed in transfected cells; host or cells: Huh-7
Description: cDNA encoding HCV NS5B genotype 1b, was cloned in frame with Gal4-DNA Binding Domain. The protein was expressed with a 21 amino acid C-terminal deletion to remove transmembrane domain. Expression of NS5BΔ21/Gal4 DBD fusion protein was under control of SV40 early promoter. 3D-Sensor peptide was cloned in frame with VP16 activation domain. Expression of 3D-Sensor/VP16 AD fusion protein was under control of CMV promoter. Expression of the firefly luciferase reporter gene was inducible by the [Target protein/conformation sensitive peptide/VP16AD] complex.
It is a single-target, cell based assay. Briefly, expression of a reporter gene depends on the interaction of a short peptide, thereafter named 3D-Sensor, and native conformation of the target protein. Whenever the conformation of the target protein is modified, interaction between 3D-sensor and target protein is disrupted and reporter gene is not expressed anymore. Conformation modifiers are identified by loss of expression of reporter gene. NS5B 3D-Screen platform was generated in Huh-7 cell lines by transient transfection of three expression vectors encoding respectively
(i) HCV NS5BΔ21/Gal4-DBD fusion protein
(ii) the 3D-sensor peptide I4/VP16 fusion protein
(iii) the firefly luciferase reporter gene
Huh-7 cells were dissociated the day before transfection and seeded in T175 flasks at a density of 10^7 cells in 30 ml culture medium. Equimolar ratios of vectors were transfected in cell according to optimized jetPEI transfection protocol (PolyPlus Transfection, Illkirch, France) and 10 μg total DNA/10^6 cells. Transfection was performed for 2 hours at 37° C. and 5% CO2 in a humidified atmosphere. After two hours cells were dissociated and seeded in 96 wells plates at a density of 25,000 cells per well and 90 μl culture medium. 10 μl of compounds to be tested were added 2 hours after seeding. Final concentration of DMSO was 1%. Cells were incubated in the presence of compounds for 24 hours after which expression of firefly luciferase reporter gene was quantified. Briefly, culture medium was removed and cells were lysed by addition of 100 μl of lysis buffer containing 125 mM Tris Phosphate ph 7.8, 10 mM EDTA, 5 mM DTT, 50% glycerol and 5% Triton. Plates were vortexed 10 min at 1300 rpm. Cell lysat was transferred in OpaqueWhite Assay 96 well Flat Bottom plates. 100 μl of luciferin solution 1× were added to each well. Luciferin solution contained 40 mM Tris Phosphate ph 7.8, 0.2 mM EDTA, 67 mM DTT, 2.14 mM MgCl2, 5.4 mM MgSO4, 4.7×10^−4 M luciferin, 5.3×10^−4 M ATP and 2.7×10^−4 M Acetyl co enzyme A. Luminescence was immediately measured with Berthold Microlumat Plus LB 96V luminometer with an integration of 0.5 sec. Inhibition was calculated using the formula: % inhibition=(1−(read/average max))*100. Average max=signal in absence of compound

HCV replicon Luc Neo ET = test: Luc Neo ET Replicon assay; assay type: cell-based, Hepatitis C virus; conditions: Hepatitis C virus, 72 h, Table 3, titled RdRp enzyme assay results, EC50_Replicon LucneoET; 72 hours with compound, luciferase
Method: Human Hepatoma Huh-7 cell line was maintained in DMEM/HAMF-12 supplemented with 10% SVF, 4 mM glutamine, […] Na pyruvate, 1% penistreptomycine. HCV replicon containing Huh-7 cell lines Huh-9.13 and Luc Neo ET (Reblikon) were maintained in DMEM supplemented with 10% SVF, 2 mM glutamine, and 1×NEAA, 100 U/ml penicillin, and 100 μg/ml streptomycine. Replicon cells were maintained in medium supplemented with 1 mg/ml G418 for replicon Huh-9.13 and 0.5 mg/ml for Luc Neo et replicon unless indicated otherwise. Huh-7 and HCV replicon cell lines were maintained at 37° C. and 5% CO2 in a humidified atmosphere. Cells were dissociated at sub confluence with trypsin EDTA 1×.
Replicon Luc Neo ET is a bicistronic expression constructs (Lohmann et al, 1999, Science 285, 110-113). In brief, the structural genes of the HCV genome were replaced by heterologous sequences; the gene encoding the neomycin phosphotransferase (NPT) and the internal ribosome entry site (IRES) of the encephalomyocarditis virus (EMCV). The bicistronic construct is therefore composed of the following elements: HCV-IRES nucleotides 1-389, the NPT gene, the EMCV-IRES directing translation of downstream HCV sequences from NS2 or NS3 up to the authentic 3′ end of the genome. HCV Polyprotein harbours the cell culture adaptive mutations E1202G, T1280I, K1846T. G418-resistance is only possible with cells containing high amounts of replicon.
Cells were dissociated the day before addition of compounds and seeded in 96 well-plates at a final concentration of 77 777.77 cells.ml^−1.well^−2 in 90 μl final volume of culture medium per well and were maintained at 37° C. and 5% CO2 in a humidified atmosphere for 24 hours. 10 μl of compounds to be tested were added 24 hours after seeding. Final concentration of DMSO was 1%. Cells were incubated in the presence of compounds for 72 hours after which expression of firefly luciferase reporter gene was quantified. Briefly, culture medium was removed and cells were lysed by addition of 100 μl of lysis buffer containing 125 mM Tris Phosphate ph 7.8, 10 mM EDTA, 5 mM DTT, 50% glycerol and 5% Triton. Plates were vortexed 10 min at 1300 rpm. Cell lysat was transferred in OpaqueWhite Assay 96 well Flat Bottom plates. 100 μl of luciferin solution 1× were added to each well. Luciferin solution contained 40 mM Tris Phosphate ph 7.8, 0.2 mM EDTA, 67 mM DTT, 2.14 mM MgCl2, 5.4 mM MgSO4, 4.7×10^−4 M luciferin, 5.3×10^−4 M ATP and 2.7×10^−4 M Acetyl co enzyme A. Luminescence was immediately measured with Berthold Microlumat Plus LB 96V luminometer with an integration of 0.5 sec Inhibition was calculated using the formula:
% inhibition=1−[(RLUsample−RLUbackground)/(RLUsignal−RLUbackground)]

[1] = Table 1, 3D-SCREEN assay results, Huh-7 cells, 24 hours with compound, firefly luciferase reporter
[2] = Table 2, titled Replicon assay results

Row | SMILES | EC50 (HCV NS5B genotype 1b; [1]) [µM] | EC50 (HCV replicon Luc Neo ET) [µM] | melting point [°C] | EC50 (HCV NS5B genotype 1b; [2]) [µM]
1 | Cc1ccc(C(=O)C2=C(O)C(=O)N(c3ccccn3)C2c2ccc(C(C)(C)C)cc2)cc1 (stereo not shown) [Example 2, 5-(4-tert-butyl-phenyl)-3-hydroxy-4-(4-methyl-benzoyl)-1-pyridin-2-yl-1,5-dihydro-pyrrol-2-one] | 9 | < 10 | – | –
2 | Cc1ccc(C(=O)C2=C(O)C(=O)N(c3ccc(C)nn3)C2c2ccc(OC(C)C)cc2)cc1 (stereo not shown) [Example 33, 3-hydroxy-5-(4-isopropoxy-phenyl)-4-(4-methyl-benzoyl)-1-(6-methyl-pyridazin-3-yl)-1,5-dihydro-pyrrol-2-one] | 2 | – | 268 to 272 | –
3 | Cc1ccc(C(=O)C2=C(O)C(=O)N(c3ccc(N(C)C)nn3)C2c2ccc(C(C)C)cc2)cc1 (stereo not shown) [Example 37, 1-(6-dimethylamino-pyridazin-3-yl)-3-hydroxy-5-(4-isopropyl-phenyl)-4-(4-methyl-benzoyl)-1,5-dihydro-pyrrol-2-one] | 9 | – | 281 | –
4 | Cc1ccc(C(=O)C2=C(O)C(=O)N(c3ccc(C)nn3)C2c2cccc(OC(C)C)c2)cc1 (stereo not shown) [Example 38, 3-hydroxy-5-(3-isopropoxy-phenyl)-4-(4-methyl-benzoyl)-1-(6-methyl-pyridazin-3-yl)-1,5-dihydro-pyrrol-2-one] | 10 | – | 243 to 245 | –
5 | Cc1ccc(C(=O)C2=C(O)C(=O)N(c3ccc(C)cn3)C2c2ccc(C(C)C)cc2)cc1 (stereo not shown) [Example 41, 3-hydroxy-5-(4-isopropyl-phenyl)-4-(4-methyl-benzoyl)-1-(5-methyl-pyridin-2-yl)-1,5-dihydro-pyrrol-2-one] | 7 | – | 259 to 261 | –
6 | Cc1ccc(N2C(=O)C(O)=C(C(=O)c3ccc(C(C)C)cc3)C2c2ccc(N3CCOCC3)cc2)nn1 (stereo not shown) [Example 58, 3-hydroxy-4-(4-isopropyl-benzoyl)-1-(6-methyl-pyridazin-3-yl)-5-(4-morpholin-4-yl-phenyl)-1,5-dihydro-pyrrol-2-one] | 5 | – | 293 to 294 | –
7 | Cc1ccc(N2C(=O)C(O)=C(C(=O)c3ccc(C(C)C)cc3)C2c2ccc(C(C)C)cc2)cn1.Cl (stereo not shown) [Example 66, 5-[3-hydroxy-4-(4-isopropyl-benzoyl)-5-(4-isopropyl-phenyl)-2-oxo-2,5-dihydro-pyrrol-1-yl]-2-methyl-pyridinium; chloride] | 2 | – | 165 | –
8 | COCCOc1ccc(C(=O)C2=C(O)C(=O)N(c3ccc(C)nn3)C2c2ccc(OC(F)(F)F)cc2)cc1 (stereo not shown) [Example 85, 3-Hydroxy-4-[4-(2-methoxy-ethoxy)-benzoyl]-1-(6-methyl-pyridazin-3-yl)-5-(4-trifluoromethoxy-phenyl)-1,5-dihydro-pyrrol-2-one] | – | – | 216 to 219 | < 10
9 | CC(=O)OC1=C(C(=O)c2ccc(C(C)C)cc2)C(c2ccc(OC(F)(F)F)cc2)N(c2ccc(C)nn2)C1=O (stereo not shown) [Example 86, Acetic acid 4-(4-isopropyl-benzoyl)-1-(6-methyl-pyridazin-3-yl)-2-oxo-5-(4-trifluoromethoxy-phenyl)-2,5-dihydro-1H-pyrrol-3-yl ester] | – | < 1 | – | < 0.1
10 | Cc1ccc(N2C(=O)C(O)=C(C(=O)c3ccc(C(C)C)cc3)C2c2ccc(Cl)cc2)nn1 (stereo not shown) [Example 87, 5-(4-chloro-phenyl)-3-hydroxy-4-(4-isopropyl-benzoyl)-1-(6-methyl-pyridazin-3-yl)-1,5-dihydro-pyrrol-2-one] | – | – | 258 to 260 | < 10
11 | Cc1ccc(N2C(=O)C(O)=C(C(=O)c3ccc(OC(F)(F)F)cc3)C2c2ccc(C(C)C)cc2)cn1 (stereo not shown) [Example 94, 3-hydroxy-5-(4-isopropyl-phenyl)-1-(6-methyl-pyridin-3-yl)-4-(4-trifluoromethoxy-benzoyl)-1,5-dihydro-pyrrol-2-one] | – | < 10 | – | < 10
12 | CCOc1ccc(C(=O)C2=C(O)C(=O)N(c3ccc(C)nn3)C2c2ccc(OC(F)(F)F)cc2)cc1 (stereo not shown) [Example 101, 4-(4-ethoxy-benzoyl)-3-hydroxy-1-(6-methyl-pyridazin-3-yl)-5-(4-trifluoromethoxy-phenyl)-1,5-dihydro-pyrrol-2-one] | – | – | 255 to 257 | < 10
13 | Cc1ccc(N2C(=O)C(O)=C(C(=O)c3ccc(C(C)C)cc3)C2c2ccc(OC(C)C)cn2)nn1 (stereo not shown) [Example 121, 3-hydroxy-5-(5-isopropoxy-pyridin-2-yl)-4-(4-isopropyl-benzoyl)-1-(6-methyl-pyridazin-3-yl)-1,5-dihydro-pyrrol-2-one] | – | – | 243 to 245 | < 10
14 | Cc1ccc(N2C(=O)C(O)=C(C(=O)c3ccc(C(F)(F)F)nc3)C2c2ccc(OC(F)(F)F)cc2)nn1 (stereo not shown) [Example 126, 3-hydroxy-1-(6-methyl-pyridazin-3-yl)-5-(4-trifluoromethoxy-phenyl)-4-(6-trifluoromethyl-pyridine-3-carbonyl)-1,5-dihydro-pyrrol-2-one] | – | – | 172 | < 10
15 | Cc1ccc(N2C(=O)C(O)=C(C(=O)c3ccc(C(C)C)cc3)C2c2ccc(N(C)C)cc2)nn1 (stereo not shown) [Example 135, 5-(4-dimethylamino-phenyl)-3-hydroxy-4-(4-isopropyl-benzoyl)-1-(6-methyl-pyridazin-3-yl)-1,5-dihydro-pyrrol-2-one] | – | – | 283 to 286 | < 10
16 | Cc1ccc(N2C(=O)C(O)=C(C(=O)c3ccc(C(C)C)cc3)C2c2ccc(Cn3nccn3)cc2)nn1 (stereo not shown) [Example 147, 3-hydroxy-4-(4-isopropyl-benzoyl)-1-(6-methyl-pyridazin-3-yl)-5-(4-[1,2,3]triazol-2-ylmethyl-phenyl)-1,5-dihydro-pyrrol-2-one] | – | – | 285 | < 10
17 | Cc1ccc(N2C(=O)C(O)=C(C(=O)c3ccc(C(C)C)cc3)[C@@H]2c2ccc(C(F)(F)F)cc2)nn1 [Example 190, 3-hydroxy-4-(4-isopropyl-benzoyl)-1-(6-methyl-pyridazin-3-yl)-5(S)-(4-trifluoromethyl-phenyl)-1,5-dihydro-pyrrol-2-one] | – | – | 252 | < 10
